Experimental data taken from US9226916B2, “Pyrrolidine derivatives” (HOFFMANN-LA ROCHE INC., priority 2009, dated 2016).
Read-outs that look alike come from different tables or passages of the source.

Biological target: T1, recombinant human NK3 receptor (Homo sapiens, UniProt P29371)
T1 construct: expressed in transfected cells; host or cells: HEK293 cells, transient expression; membranes
T1 sequence (P29371 1-465): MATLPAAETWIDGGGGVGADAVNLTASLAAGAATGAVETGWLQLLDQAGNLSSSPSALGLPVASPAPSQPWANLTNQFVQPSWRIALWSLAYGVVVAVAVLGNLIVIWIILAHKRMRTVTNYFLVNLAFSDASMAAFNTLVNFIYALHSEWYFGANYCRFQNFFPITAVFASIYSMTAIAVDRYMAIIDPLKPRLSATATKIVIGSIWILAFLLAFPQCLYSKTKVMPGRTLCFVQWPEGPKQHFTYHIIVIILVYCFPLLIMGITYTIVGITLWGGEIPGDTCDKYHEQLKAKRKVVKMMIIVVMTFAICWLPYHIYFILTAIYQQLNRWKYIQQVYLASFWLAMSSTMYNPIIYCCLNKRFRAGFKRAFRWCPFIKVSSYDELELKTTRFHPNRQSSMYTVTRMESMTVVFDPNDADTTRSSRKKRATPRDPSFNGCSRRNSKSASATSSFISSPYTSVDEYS
Assay: [3H]SR142801 competition binding assay

[1] = hNK-3 receptor affinity, membranes from HEK293 cells transiently expressing recombinant human NK3 receptor, [3H]SR142801, Cheng-Prussoff, read-out: Data Ki

Ki [1] [nM] | Structure (SMILES) | Ki [nM] | also measured
 | CN(C(=O)Oc1ccc(F)cc1F)[C@@H]1CN(C(=O)C2CCN(c3ccc(C#N)cn3)CC2)C[C@H]1c1ccc(Cl)cc1 [Example 208, [(3S,4R)-4-(4-Chloro-phenyl)-1-(5′-cyano-3,4,5,6-tetrahydro-2H-[1,2′]bipyridinyl-4-carbonyl)-pyrrolidin-3-yl]-methyl-carbamic acid 2,4-difluoro-phenyl ester] | 0.4 | 
 | CN(C(=O)Oc1ccc(F)c(F)c1)[C@@H]1CN(C(=O)C2CCN(c3ccc(C#N)cn3)CC2)C[C@H]1c1ccc(Cl)cc1 [Example 209, [(3S,4R)-4-(4-Chloro-phenyl)-1-(5′-cyano-3,4,5,6-tetrahydro-2H-[1,2′]bipyridinyl-4-carbonyl)-pyrrolidin-3-yl]-methyl-carbamic acid 3,4-difluoro-phenyl ester] | 0.8 | 
 | CN(C(=O)Oc1cc(F)cc(F)c1)[C@@H]1CN(C(=O)C2CCN(c3ccc(C#N)nc3)CC2)C[C@H]1c1ccc(Cl)cc1 [Example 210, [(3S,4R)-4-(4-Chloro-phenyl)-1-(6′-cyano-3,4,5,6-tetrahydro-2H-[1,3]bipyridinyl-4-carbonyl)-pyrrolidin-3-yl]-methyl-carbamic acid 3,5-difluoro-phenyl ester] |  | Ki (read-out: Data Ki): 4.6 nM
 | CN(C(=O)Oc1cccc(F)c1F)[C@@H]1CN(C(=O)C2CCN(c3ccc(C#N)cn3)CC2)C[C@H]1c1ccc(Cl)cc1 [Example 211, [(3S,4R)-4-(4-Chloro-phenyl)-1-(5′-cyano-3,4,5,6-tetrahydro-2H-[1,2′]bipyridinyl-4-carbonyl)-pyrrolidin-3-yl]-methyl-carbamic acid 2,3-difluoro-phenyl ester] | 2.4 | 
 | CN(C(=O)Oc1ccccc1F)[C@@H]1CN(C(=O)C2CCN(c3ccc(C#N)cn3)CC2)C[C@H]1c1ccc(Cl)cc1 [Example 212, [(3S,4R)-4-(4-Chloro-phenyl)-1-(5′-cyano-3,4,5,6-tetrahydro-2H-[1,2′]bipyridinyl-4-carbonyl)-pyrrolidin-3-yl]-methyl-carbamic acid 2-fluoro-phenyl ester] | 1.4 | 
 | CN(C(=O)Oc1ccccc1Cl)[C@@H]1CN(C(=O)C2CCN(c3ccc(C#N)cn3)CC2)C[C@H]1c1ccc(Cl)cc1 [Example 213, [(3S,4R)-4-(4-Chloro-phenyl)-1-(5′-cyano-3,4,5,6-tetrahydro-2H-[1,2′]bipyridinyl-4-carbonyl)-pyrrolidin-3-yl]-methyl-carbamic acid 2-chloro-phenyl ester] | 7.2 | 
94.2 | CN(C(=O)OCCCF)[C@@H]1CN(C(=O)C2CCN(c3ccc(C#N)cn3)CC2)C[C@H]1c1ccc(Cl)cc1 [Example 214, [(3S,4R)-4-(4-Chloro-phenyl)-1-(5′-cyano-3,4,5,6-tetrahydro-2H-[1,2′]bipyridinyl-4-carbonyl)-pyrrolidin-3-yl]-methyl-carbamic acid 3-fluoro-propyl ester] |  | 
8.4 | CN(C(=O)OCC1CC1)[C@@H]1CN(C(=O)C2CCN(c3ccc(C#N)cn3)CC2)C[C@H]1c1ccc(Cl)cc1 [Example 215, [(3S,4R)-4-(4-Chloro-phenyl)-1-(5′-cyano-3,4,5,6-tetrahydro-2H-[1,2′]bipyridinyl-4-carbonyl)-pyrrolidin-3-yl]-methyl-carbamic acid cyclopropylmethyl ester] |  | 
53.6 | COCCCOC(=O)N(C)[C@@H]1CN(C(=O)C2CCN(c3ccc(C#N)cn3)CC2)C[C@H]1c1ccc(Cl)cc1 [Example 216, [(3S,4R)-4-(4-Chloro-phenyl)-1-(5′-cyano-3,4,5,6-tetrahydro-2H-[1,2′]bipyridinyl-4-carbonyl)-pyrrolidin-3-yl]-methyl-carbamic acid 3-methoxy-propyl ester] |  | 
7.7 | CN(C(=O)OCC1(C)CC1)[C@@H]1CN(C(=O)C2CCN(c3ccc(C#N)cn3)CC2)C[C@H]1c1ccc(Cl)cc1 [Example 217, [(3S,4R)-4-(4-Chloro-phenyl)-1-(5′-cyano-3,4,5,6-tetrahydro-2H-[1,2′]bipyridinyl-4-carbonyl)-pyrrolidin-3-yl]-methyl-carbamic acid 1-methyl-cyclopropylmethyl ester] |  | 
